“Also recorded” adds a separate entry of the source. Where a SMILES comes first, the peptide text is derived from it. Bridges are numbered along the chain shown (N, C = ends). Roman numbers before positions name the chains, in order.
Key:
[1] = system: Human mesenchymal stem cells (MSCs); test: In vitro cytotoxicity assay (CellTiter-Glo ATP viability) on MSCs; format: cell-based; settings: for positive effect on viability of dipeptide combined with Cu(II): 24 h, selected combinations of dipeptide and Cu(II)
Procedure: (§1) Human mesenchymal stem cells (MSCs) were cultivated in MesenCult™-ACF Plus Culture Kit (Stemcell Technologies). The medium was prepared according to the manufacturer's instructions with addition of […] gentamicin and 2 mM I-glutamine. Agarabi CHO cells were cultivated in ActiPro medium supplemented with 6 mM I-glutamine. “Complete growth medium” references the medium with added supplements used for the cultivation of the corresponding cell type.
(§2) Stock solutions of Cu(II), I-cysteine, N, N′-di-I-alanyl-I-cysteine ((Ala-Cys)2) and N, N′-di-I-lysyl-I-cysteine ((Lys-Cys)2) were brought into solution in the corresponding complete growth medium immediately prior to their use. For the assay performed with combinations of Cu(II) and I-cysteine, (Ala-Cys)2 or (Lys-Cys)2 on MSCs, the dissolved single compounds were mixed together at 2× treatment concentration. On MSCs, I-cysteine and the dipeptides were tested at 0.5 mM, 1 mM and 5 mM; Cu(II) was tested at 0.2 μM, 1 μM and 5 μM. For the treatment of Agarabi CHO cells, serial dilutions of I-cysteine, (Ala-Cys)2 and (Lys-Cys)2 stock solutions in complete growth medium were performed with 2× treatment concentration at each dilution step. On Agarabi CHO cells, I-cysteine and the dipeptides were tested at 2.5 mM, 5 mM and 10 mM; Cu(II) was tested at 2.5 μM, 10 μM and 40 μM.
(§3) The cytotoxicity of the test compounds and their combinations was assayed on MSCs and Agarabi CHO cells cultivated in white 96-well cell culture plates at 5.000 cells/well. MSCs (50 μL/well) were cultivated for 24 h in a CO2-incubator (37° C., 5% CO2, 95% humidity) to ensure cell adhesion. This was followed by the addition of the prepared 2× concentrated test compounds and mixtures (50 μL/well). […]
(§4) After incubation, the viability of the treated cells was determined based on adenosine triphosphate (ATP) quantification using the CellTiter-Glo® Luminescent Cell Viability Assay (Promega) according to the manufacturer's instructions.
(§5) To calculate the cell viability, resulting luminescence values were averaged and normalized to the signal emitted by the untreated cells.

[2] = system: Agarabi CHO cells; test: In vitro cytotoxicity assay (CellTiter-Glo ATP viability) on Agarabi CHO cells; format: cell-based; settings: for positive effect on viability of dipeptide combined with Cu(II): Agarabi CHO cells, 96 h, selected combinations of dipeptide and Cu(II)
Procedure: as §1, §2, §3, §4, §5

SMILES | effect of single component on cell viability ([1]; single component controls, L-cysteine and dipeptides up to 5 mM, Cu(II) up to 5 μM) | effect of single component on cell viability ([2]; CHO cells, single component control, Cu(II) up to 40 μM) | positive effect on viability of dipeptide combined with Cu(II) [1] | positive effect on viability of dipeptide combined with Cu(II) [2]
O.O.O.O.O.O=S(=O)([O-])[O-].[Cu+2] [Cu(II), Copper (II) sulfate pentahydrate, reference compound] | did not have a negative effect on viability | did not have a negative effect on viability |  | 
C[C@H](N)C(=O)N[C@@H](CSSC[C@H](NC(=O)[C@H](C)N)C(=O)O)C(=O)O [(Ala-Cys)2, N,N′-di-L-alanyl-L-cystine] (I: H-Ala-Cys-OH / II: H-Ala-Cys-OH; disulfide I:2-II:2) |  |  | pronounced positive effect on viability; also recorded: viability was even increased | pronounced positive effect on viability; also recorded: viability was even increased
NCCCC[C@H](N)C(=O)N[C@@H](CSSC[C@H](NC(=O)[C@@H](N)CCCCN)C(=O)O)C(=O)O [(Lys-Cys)2, N,N′-di-L-lysyl-L-cystine] (I: H-Lys-Cys-OH / II: H-Lys-Cys-OH; disulfide I:2-II:2) |  |  | pronounced positive effect on viability; also recorded: viability was even increased | pronounced positive effect on viability; also recorded: viability was even increased

Reference: patent publication US20240279615A1, “COMPOSITIONS COMPRISING DIPEPTIDES AND TRACE ELEMENTS” (Evonik Operations GmbH, priority 2021, published 2024)
